Here are results for 57 molecules from US6369069B1 (Aventis Pharma Deutschland GmbH, priority 1998, dated 2002).

SMILES strings stand for the structures.

In one assay the test system is Na^+-dependent Cl^−/HCO3^− exchanger (NCBE). Nature of the assay: Inhibition of the Na+-dependent Cl−/HCO3− exchanger (NCBE) in human endothelial cells (pHi recovery, BCECF fluorescence, FLIPR). The settings on record: 10 μM. The class given is cell-based. A digest of the protocol:
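Fluorescence rise (FLIPR, 2 min, 35 °C) tracked pHi recovery in acid-loaded, BCECF-loaded ECV-304 cells after adding Na+- and HCO3−-containing buffer with 50 μM HOE 642 and graded compound doses. Inhibition was calculated against full-recovery and bicarbonate-free no-recovery controls.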
On to `COC(=O)C(Cc1ccccc1)N(Cc1ccc(-c2ccccc2S(=O)(=O)NC#N)cc1)C(=O)Cc1csc2ccccc12` (stereo not drawn) [Example 217], for which the “Residual activity % of the NCBE at 10 μM” value was 46.0%.

In the case of `N#CNS(=O)(=O)c1ccccc1-c1ccc(CN(Cc2cccc(-c3ccccc3)c2)C(=O)Cc2cccs2)cc1` [Example 317], the “Residual activity % of the NCBE at 10 μM” value was determined as 14.5%.

As for `N#CNS(=O)(=O)c1ccccc1-c1ccc(CN(Cc2cccc3ccccc23)C(=O)Cc2cccs2)cc1` [Example 271], the “Residual activity % of the NCBE at 10 μM” value is 15.9%.

`COC(=O)C(Cc1ccccc1)N(Cc1ccc(-c2ccccc2S(=O)(=O)NC#N)cc1)C(=O)Cc1ccsc1` (stereo not drawn) [Example 233]: the “Residual activity % of the NCBE at 10 μM” value is 68.1%.

Regarding `N#CNS(=O)(=O)c1ccccc1-c1ccc(CN(Cc2ccc(Cl)cc2)C(=O)CCC2CCCCC2)cc1` [Example 10], the “Residual activity % of the NCBE at 10 μM” value is given as 84.9%.

Consider `N#CNS(=O)(=O)c1ccccc1-c1ccc(CN(CCO)C(=O)Cc2cccs2)cc1` [Example 26], for which the “Residual activity % of the NCBE at 10 μM” value is recorded as 47.6%.

For `N#CNS(=O)(=O)c1ccccc1-c1ccc(CN(C(=O)CC2CCCCC2)C2CCCc3ccccc32)cc1` (stereo not drawn) [Example 355], the “Residual activity % of the NCBE at 10 μM” value was determined as 46.8%.

`N#CNS(=O)(=O)c1ccccc1-c1ccc(CN(Cc2nc3ccccc3[nH]2)C(=O)Cc2csc3ccccc23)cc1` [Example 216]: the “Residual activity % of the NCBE at 10 μM” value is reported as 62.2%.

As to `COc1ccc(CN(Cc2ccc(-c3ccccc3S(=O)(=O)NC#N)cc2)C(=O)Cc2cccc(OC)c2)cc1` [Example 21], the “Residual activity % of the NCBE at 10 μM” value is listed as 52.3%.

With `N#CNS(=O)(=O)c1ccccc1-c1ccc(CN(Cc2cccc(Cl)c2)C(=O)CCc2cccs2)cc1` [Example 290], the “Residual activity % of the NCBE at 10 μM” value was determined as 45.8%.

Regarding `COc1cccc(CN(Cc2ccc(-c3ccccc3S(=O)(=O)NC#N)cc2)C(=O)NC2CCCCC2)c1` [Example 304], the “Residual activity % of the NCBE at 10 μM” value is 56.0%.

Consider `CC(C)(C)OC(=O)C(c1ccccc1)N(Cc1ccc(-c2ccccc2S(=O)(=O)NC#N)cc1)C(=O)Cc1ccccc1Br` (stereo not drawn) [Example 275], for which the “Residual activity % of the NCBE at 10 μM” value turned out to be 54.6%.

For `COc1ccc(CCN(Cc2ccc(-c3ccccc3S(=O)(=O)NC#N)cc2)C(=O)Cc2ccccc2)cc1` [Example 130], the “Residual activity % of the NCBE at 10 μM” value was found to be 77.8%.

In the case of `N#CNS(=O)(=O)c1ccccc1-c1ccc(CN(Cc2ccccc2)C(=O)NC2CCCCC2)cc1` [Example 300], the “Residual activity % of the NCBE at 10 μM” value was 29.4%.

For `COCCN(Cc1ccc(-c2ccccc2S(=O)(=O)NC#N)cc1)C(=O)CCCCc1cccs1` [Example 219], the “Residual activity % of the NCBE at 10 μM” value was determined as 82.5%.

For the molecule `N#CNS(=O)(=O)c1ccccc1-c1ccc(CN(CCOc2ccccc2)C(=O)COc2ccccc2)cc1` [Example 166], the “Residual activity % of the NCBE at 10 μM” value is 57.9%.

As for `N#CNS(=O)(=O)c1ccccc1-c1ccc(CN(Cc2nc3ccccc3[nH]2)C(=O)Cc2c[nH]c3ccccc23)cc1` [Example 208], the “Residual activity % of the NCBE at 10 μM” value came out at 50.7%.

Regarding `Cc1ccc(CN(Cc2ccc(-c3ccccc3S(=O)(=O)NC#N)cc2)C(=O)C(c2ccccc2)c2ccccc2)cc1` [Example 115], the “Residual activity % of the NCBE at 10 μM” value is on record as 84.0%.

For `N#CNS(=O)(=O)c1ccccc1-c1ccc(CN(Cc2ccccc2)C(=O)c2ccccc2Cl)cc1` [Example 55], the “Residual activity % of the NCBE at 10 μM” value amounted to 29.3%.

For the molecule `COCCN(Cc1ccc(-c2ccccc2S(=O)(=O)NC#N)cc1)C(=O)Cc1ccsc1` [Example 227], the “Residual activity % of the NCBE at 10 μM” value amounted to 50.6%.

Take `CC(=O)N(Cc1ccc(-c2ccccc2S(=O)(=O)NC#N)cc1)CC1CC1` [Example 182]: the “Residual activity % of the NCBE at 10 μM” value came out at 74.9%.

On to `COCCN(Cc1ccc(-c2ccccc2S(=O)(=O)NC#N)cc1)C(=O)CCCc1cccs1` [Example 187], for which the “Residual activity % of the NCBE at 10 μM” value is on record as 62.4%.

As for `N#CNS(=O)(=O)c1ccccc1-c1ccc(CN(CCO)C(=O)c2ccccc2Cl)cc1` [Example 56], the “Residual activity % of the NCBE at 10 μM” value stood at 69.0%.

As for `N#CNS(=O)(=O)c1ccccc1-c1ccc(CN(Cc2ccc(F)cc2)C(=O)Cc2ccc(Cl)cc2)cc1` [Example 157], the “Residual activity % of the NCBE at 10 μM” value amounted to 24.9%.

As to `COc1cccc(CC(=O)N(Cc2ccccc2)Cc2ccc(-c3ccccc3S(=O)(=O)NC#N)cc2)c1` [Example 19], the “Residual activity % of the NCBE at 10 μM” value stood at 25.9%.

For `N#CNS(=O)(=O)c1ccccc1-c1ccc(CN(C(=O)CC2CCCC2)C2CCCc3ccccc32)cc1` (stereo not drawn) [Example 365], the “Residual activity % of the NCBE at 10 μM” value came out at 45.1%.

In the case of `N#CNS(=O)(=O)c1ccccc1-c1ccc(CN(Cc2ccncc2)C(=O)Cc2cccs2)cc1` [Example 146], the “Residual activity % of the NCBE at 10 μM” value amounted to 69.8%.

Regarding `N#CNS(=O)(=O)c1ccccc1-c1ccc(CN(Cc2ccco2)C(=O)Cc2cccs2)cc1` [Example 139], the “Residual activity % of the NCBE at 10 μM” value came out at 48.5%.

Consider `CCCC(=O)N(Cc1ccc(OC)cc1)Cc1ccc(-c2ccccc2S(=O)(=O)NC#N)cc1` [Example 3], for which the “Residual activity % of the NCBE at 10 μM” value is 80.9%.

Consider `N#CNS(=O)(=O)c1ccccc1-c1ccc(CN(Cc2ccccc2Cl)C(=O)c2cc3ccccc3s2)cc1` [Example 71], for which the “Residual activity % of the NCBE at 10 μM” value stood at 35.2%.

For `CC(=O)N(Cc1ccc(-c2ccccc2S(=O)(=O)NC#N)cc1)Cc1ccccc1Cl` [Example 181], the “Residual activity % of the NCBE at 10 μM” value amounted to 80.8%.

As for `N#CNS(=O)(=O)c1ccccc1-c1ccc(CN(Cc2cccc(Cl)c2Cl)C(=O)CC2CCCCC2)cc1` [Example 349], the “Residual activity % of the NCBE at 10 μM” value was determined as 50.4%.

As for `C[C@@H](c1ccccc1)N(Cc1ccc(-c2ccccc2S(=O)(=O)NC#N)cc1)C(=O)Cc1ccccc1` [Example 123], the “Residual activity % of the NCBE at 10 μM” value is recorded as 72.2%.

For the molecule `N#CNS(=O)(=O)c1ccccc1-c1ccc(CN(Cc2ccccc2Cl)C(=O)Cc2ccccc2Cl)cc1` [Example 291], the “Residual activity % of the NCBE at 10 μM” value turned out to be 23.7%.

For the molecule `C[C@H](c1ccccc1)N(Cc1ccc(-c2ccccc2S(=O)(=O)NC#N)cc1)C(=O)Cc1ccccc1` [Example 128], the “Residual activity % of the NCBE at 10 μM” value amounted to 61.4%.

As to `N#CNS(=O)(=O)c1ccccc1-c1ccc(CN(Cc2ccc(Cl)c(Cl)c2)C(=O)C(=O)c2ccco2)cc1` [Example 263], the “Residual activity % of the NCBE at 10 μM” value turned out to be 54.0%.

On to `N#CNS(=O)(=O)c1ccccc1-c1ccc(CN(Cc2ccccc2F)C(=O)Cc2cccs2)cc1` [Example 316], for which the “Residual activity % of the NCBE at 10 μM” value amounted to 14.4%.

Turning to `COCCC(=O)N(Cc1ccc(-c2ccccc2S(=O)(=O)NC#N)cc1)Cc1cccc(Cl)c1Cl` [Example 319], the “Residual activity % of the NCBE at 10 μM” value worked out at 38.0%.

Consider `N#CNS(=O)(=O)c1ccccc1-c1ccc(CN(Cc2cccc(Cl)c2Cl)C(=O)CC2CCCC2)cc1` [Example 359], for which the “Residual activity % of the NCBE at 10 μM” value stood at 37.9%.

As for `N#CNS(=O)(=O)c1ccccc1-c1ccc(CN(Cc2nc3ccccc3[nH]2)C(=O)CCCc2cccs2)cc1` [Example 192], the “Residual activity % of the NCBE at 10 μM” value was determined as 49.1%.

Consider `C/C=C/C(=O)N(Cc1ccc(OC)cc1)Cc1ccc(-c2ccccc2S(=O)(=O)NC#N)cc1` [Example 64], for which the “Residual activity % of the NCBE at 10 μM” value is 88.0%.

For `COCCC(=O)N(Cc1ccc(-c2ccccc2S(=O)(=O)NC#N)cc1)Cc1ccc2ccccc2c1` [Example 320], the “Residual activity % of the NCBE at 10 μM” value is recorded as 38.8%.

As for `N#CNS(=O)(=O)c1ccccc1-c1ccc(CN(Cc2cccc(-c3ccccc3)c2)C(=O)CC2CCCCC2)cc1` [Example 357], the “Residual activity % of the NCBE at 10 μM” value worked out at 61.9%.

As for `CN(Cc1ccc(-c2ccccc2S(=O)(=O)NC#N)cc1)C(=O)CCCCc1cccs1` [Example 222], the “Residual activity % of the NCBE at 10 μM” value was found to be 76.7%.

Take `COC(=O)C(Cc1ccccc1)N(Cc1ccc(-c2ccccc2S(=O)(=O)NC#N)cc1)C(=O)CCCc1cccs1` (stereo not drawn) [Example 193]: the “Residual activity % of the NCBE at 10 μM” value came out at 62.8%.

Still in this assay, the particulars now being: compound at 10 μM; R(3) to R(7) hydrogen series.
As for `N#CNS(=O)(=O)c1ccccc1-c1ccc(CN(Cc2ccccc2F)C(=O)CC2CCCC2)cc1` [Example 366], the “Residual activity % of the NCBE at 10 μM” value was found to be 38.4%.

As to `N#CNS(=O)(=O)c1ccccc1-c1ccc(CN(CC2(c3ccccc3)CCCC2)C(=O)Cc2ccco2)cc1` [Example 394], the “Residual activity % of the NCBE at 10 μM” value was found to be 72.5%.

With `N#CNS(=O)(=O)c1ccccc1-c1ccc(CN(CC2(c3ccccc3)CCCC2)C(=O)Cc2cccs2)cc1` [Example 392], the “Residual activity % of the NCBE at 10 μM” value came to 55.6%.

For `N#CNS(=O)(=O)c1ccccc1-c1ccc(CN(CC2CCCO2)C(=O)CC2CCCC2)cc1` (stereo not drawn) [Example 368], the “Residual activity % of the NCBE at 10 μM” value came to 51.0%.

Staying with this assay, now noted: compound at 10 μM; sub-table with R7 substituent.
For the molecule `Cc1ccc(-c2ccc(CN(Cc3cccs3)C(=O)C(C)c3cccs3)cc2)c(S(=O)(=O)NC#N)c1` (stereo not drawn) [Example 525], the “Residual activity % of the NCBE at 10 μM” value was 74.0%.

For `Cc1ccc(-c2ccc(CN(Cc3ccc4ccccc4c3)C(=O)Cc3ccsc3)cc2)c(S(=O)(=O)NC#N)c1` [Example 539], the “Residual activity % of the NCBE at 10 μM” value is listed as 65.2%.

Consider `Cc1ccc(-c2ccc(CN(Cc3ccccc3Cl)C(=O)Cc3cccs3)cc2)c(S(=O)(=O)NC#N)c1` [Example 516], for which the “Residual activity % of the NCBE at 10 μM” value is 98.7%.

Consider `Cc1ccc(-c2ccc(CN(Cc3cccc4ccccc34)C(=O)Cc3cccs3)cc2)c(S(=O)(=O)NC#N)c1` [Example 514], for which the “Residual activity % of the NCBE at 10 μM” value was 74.9%.

For the molecule `Cc1ccc(-c2ccc(CN(Cc3cccs3)C(=O)Cc3cccs3)cc2)c(S(=O)(=O)NC#N)c1` [Example 517], the “Residual activity % of the NCBE at 10 μM” value is on record as 86.2%.

In the case of `Cc1ccc(-c2ccc(CN(Cc3cccc4ccccc34)C(=O)CC3CCCCC3)cc2)c(S(=O)(=O)NC#N)c1` [Example 546], the “Residual activity % of the NCBE at 10 μM” value was determined as 63.6%.

Consider `Cc1ccc(-c2ccc(CN(CCc3ccccc3)C(=O)Cc3ccsc3)cc2)c(S(=O)(=O)NC#N)c1` [Example 542], for which the “Residual activity % of the NCBE at 10 μM” value is 67.4%.

Turning to `Cc1ccc(-c2ccc(CN(Cc3ccccc3Cl)C(=O)Cc3ccsc3)cc2)c(S(=O)(=O)NC#N)c1` [Example 540], the “Residual activity % of the NCBE at 10 μM” value is listed as 64.6%.
